Each structure is given as a SMILES string.

Regarding `*C(=O)c1ccc(Oc2c(C)cc(-c3cc(C)c(Oc4ccc(C(=O)c5ccc6nc(*)ccc6c5)cc4)c(C)c3)cc2C)cc1` (repeat unit), the glass transition temperature was found to be 180.00 °C.
Under `*C(=O)c1ccc(Oc2ccc(-c3ccc(Oc4ccc(C(=O)c5ccc6c(c5)C(=O)N(c5ccc(Cc7ccc(N8C(=O)c9ccc(*)cc9C8=O)cc7)cc5)C6=O)cc4)cc3)cc2)cc1` (repeat unit) stands 241.00 °C.
The figure for `*C(=O)c1ccc2c(c1)C(=O)N(c1ccc(Cc3ccc(Cc4ccc(N5C(=O)c6ccc(*)cc6C5=O)cc4)cc3)cc1)C2=O` (repeat unit) is 347.00 °C.
In turn, `*C(=O)c1ccc2c(c1)C(=O)N(c1ccc(N(c3ccccc3)c3ccc(N4C(=O)c5ccc(*)cc5C4=O)cc3)cc1)C2=O` (repeat unit) registered a glass transition temperature of 270.00 °C.
`*CC(O)COc1c(C)cc(C(C)(C)c2cc(C)c(O*)c(C)c2)cc1C` (repeat unit) yielded a glass transition temperature of 130.00 °C.
The figure for `*CC(O)COc1c(C)cc(S(=O)(=O)c2cc(C)c(O*)c(C)c2)cc1C` (repeat unit) is 152.50 °C; for `*OP(=O)(Oc1ccc([N+](=O)[O-])cc1)Oc1c(C)cc(S(=O)(=O)c2cc(C)c(*)c(C)c2)cc1C` (repeat unit) it is 173.00 °C.
Under `*OP(=O)(Oc1ccccc1)Oc1c(C)cc(S(=O)(=O)c2cc(C)c(*)c(C)c2)cc1C` (repeat unit) stands 142.00 °C.
The figure for `*O[Si](C)(C)O[Si](C)(C)O[Si](C)(C)O[Si](C)(C)Oc1c(C)cc(-c2cc(C)c(*)c(C)c2)cc1C` (repeat unit) is -16.00 °C; for `*O[Si](C)(C)O[Si](C)(C)Oc1c(C)cc(-c2cc(C)c(*)c(C)c2)cc1C` (repeat unit) it is 55.00 °C; for `*Oc1c(C)cc(C2(c3cc(C)c(OC(=O)c4cccc(C(*)=O)c4)c(C)c3)CCC3CCCCC3C2)cc1C` (repeat unit) it is 261.00 °C.
With `*Oc1c(C)cc(C2(c3cc(C)c(OC(=O)c4cccc(C(*)=O)c4)c(C)c3)c3ccccc3-c3ccccc32)cc1C` (repeat unit), the glass transition temperature was found to be 315.00 °C.
Under `*Oc1c(C)cc(C2(c3cc(C)c(Oc4ccc(C(=O)c5ccc(*)cc5)cc4)c(C)c3)CCC3CCCCC3C2)cc1C` (repeat unit) stands 251.00 °C; under `*Oc1c(C)cc(C2(c3cc(C)c(Oc4ccc(C(=O)c5cccc(C(=O)c6ccc(*)cc6)c5)cc4)c(C)c3)c3ccccc3-c3ccccc32)cc1C` (repeat unit), 229.00 °C; under `*Oc1c(Cl)cc(C(C)(C)c2cc(Cl)c(OC(=O)CCCCC(*)=O)c(Cl)c2)cc1Cl` (repeat unit), 100.00 °C.
The figure for `*Oc1ccc(C2(c3ccc(Oc4ccc(C(=O)Oc5c(C)cc(C(C)(C)c6cc(C)c(OC(=O)c7ccc(*)cc7)c(C)c6)cc5C)cc4)cc3)CCC(C(C)(C)C)CC2)cc1` (repeat unit) is 176.00 °C; for `*Oc1ccc(S(=O)(=O)c2ccc(Oc3c(C)cc(C(C)(C)c4cc(C)c(*)c(C)c4)cc3C)cc2C(O)(C(F)(F)F)C(F)(F)F)c(C(O)(C(F)(F)F)C(F)(F)F)c1` (repeat unit) it is 187.00 °C; for `*Oc1ccc(S(=O)(=O)c2ccc(Oc3c(C)cc(C(c4cc(C)c(*)c(C)c4)(C(F)(F)F)C(F)(F)F)cc3C)c(Br)c2)cc1Br` (repeat unit) it is 230.80 °C.
The figure for `*Oc1ccc(S(=O)(=O)c2ccc(Oc3c(C)cc(C(c4cc(C)c(*)c(C)c4)(C(F)(F)F)C(F)(F)F)cc3C)cc2)cc1` (repeat unit) is 248.00 °C.
`*Oc1ccc(S(=O)(=O)c2ccc3cc(S(=O)(=O)c4ccc(Oc5c(C)cc(-c6cc(C)c(*)c(C)c6)cc5C)cc4)ccc3c2)cc1` (repeat unit): the glass transition temperature is 280.00 °C.
Under `*c1c(C)cc(-c2cc(C)c(N3C(=O)c4cccc(Oc5c(C)cc(-c6cc(C)c(Oc7cccc8c7C(=O)N(*)C8=O)c(C)c6)cc5C)c4C3=O)c(C)c2)cc1C` (repeat unit) stands 327.00 °C; under `*c1c(C)cc(C)c(N2C(=O)c3cccc(Oc4c(C)cc(-c5cc(C)c(Oc6cccc7c6C(=O)N(*)C7=O)c(C)c5)cc4C)c3C2=O)c1C` (repeat unit), 325.00 °C.
The figure for `*c1c(C)cc(Cc2cc(C)c(N3C(=O)c4ccc(Oc5c(C)cc(-c6cc(C)c(Oc7ccc8c(c7)C(=O)N(*)C8=O)c(C)c6)cc5C)cc4C3=O)c(C)c2)cc1C` (repeat unit) is 420.00 °C.
The compound `*c1cc(CC(=O)OCC)c(*)s1` (repeat unit) had a glass transition temperature of 56.70 °C.
On to `*c1cc(CC(=O)OCCN(CC)c2ccc(/N=N/c3ccc([N+](=O)[O-])cc3)cc2)c(*)s1` (repeat unit), for which the glass transition temperature is 102.00 °C.
The figure for `*c1cc(CCCCBr)c(*)s1` (repeat unit) is 19.00 °C; for `*c1cc(CCOc2ccc(/N=N/c3ccc(C#N)cc3)cc2)c(*)s1` (repeat unit) it is 73.00 °C; for `*c1cc(Oc2c(C)cc(-c3cc(C)c(Oc4cc(N5C(=O)c6ccc(-c7ccc8c(c7)C(=O)N(*)C8=O)cc6C5=O)cc(C(F)(F)F)c4)c(C)c3)cc2C)cc(C(F)(F)F)c1` (repeat unit) it is 281.10 °C.
The figure for `*c1ccc(Oc2c(C)cc(-c3cc(C)c(Oc4ccc(N5C(=O)c6ccc(Oc7ccccc7Oc7ccc8c(c7)C(=O)N(*)C8=O)cc6C5=O)cc4C(F)(F)F)c(C)c3)cc2C)c(C(F)(F)F)c1` (repeat unit) is 270.00 °C.
Under `*c1ccc(Oc2c(C)cc(C(c3cc(C)c(Oc4ccc(-n5c(=O)c6cc7c(=O)n(*)c(=O)c7cc6c5=O)cc4)c(C)c3)c3cccc4ccccc34)cc2C)cc1` (repeat unit) stands 315.00 °C; under `*c1ccc(Oc2c(C)cc(C(c3cccnc3)c3cc(C)c(Oc4ccc(N5C(=O)CC(Nc6ccc(NC7CC(=O)N(*)C7=O)cc6)C5=O)cc4)c(C)c3)cc2C)cc1` (repeat unit), 229.00 °C.
With `*c1ccc(Oc2ccc(C3(c4ccc(Oc5ccc(N6C(=O)c7ccc(Oc8c(C)cc(C(C)(C)c9cc(C)c(Oc%10ccc%11c(c%10)C(=O)N(*)C%11=O)c(C)c9)cc8C)cc7C6=O)cc5)cc4)CC4CCC3C4)cc2)cc1` (repeat unit), the glass transition temperature came to 265.00 °C.
Regarding `*c1ccc(Oc2ccc(N3C(=O)c4ccc(Oc5c(C)cc(-c6cc(C)c(Oc7ccc8c(c7)C(=O)N(*)C8=O)c(C)c6)cc5C)cc4C3=O)cc2)cc1` (repeat unit), the glass transition temperature worked out at 299.00 °C.
The figure for `*c1ccc(Oc2ccc(N3C(=O)c4cccc(Oc5c(C)cc(-c6cc(C)c(Oc7cccc8c7C(=O)N(*)C8=O)c(C)c6)cc5C)c4C3=O)cc2)cc1` (repeat unit) is 298.00 °C; for `*c1ccc(Oc2ccc(Oc3ccc(N4C(=O)c5ccc(Oc6c(C)cc(C(C)(C)c7cc(C)c(Oc8ccc9c(c8)C(=O)N(*)C9=O)c(C)c7)cc6C)cc5C4=O)cc3)c(C(C)(C)C)c2)cc1` (repeat unit) it is 244.00 °C; for `*c1cccc(N2C(=O)c3ccc(Oc4c(C)cc(-c5cc(C)c(Oc6ccc7c(c6)C(=O)N(*)C7=O)c(C)c5)cc4C)cc3C2=O)c1` (repeat unit) it is 295.00 °C.

The record behind these values is the PolyMetriX glass transition set.
